Measured values taken from patent US6541503B2, “Substituted oxindole derivatives as protein tyrosine kinase and as protein serine/threonine kinase inhibitors” (SmithKline Beecham Corporation, priority 1997, dated 2003).
Where two headings read alike, the source gives them in different places.

Tests used:
Type in all cases: biochemical
CDK1 = CDK1 (Homo sapiens, UniProt P06493); test: Cyclin dependent protein kinase substrate phosphorylation assay, CDK1
Method: Cyclin dependent protein kinase assays utilized the peptides Biotin-aminohexyl-[…] and Biotin-aminohexyl-[…]-NH2 as phosphoryl group acceptors. CDK1 and CDK2 were both expressed utilizing a baculovirus expression system and were partially purified to comprise 20-80% of total protein, with no detectable competing reactions present. Typically, assays were performed by incubating either enzyme (0.2-10 nM), with and without inhibitor, one of the two peptide substrates ([…]), [γ-^32P]ATP ([…]), and 10-20 mM Mg^2+ for periods of time generally within the range 10-120 min. Reactions were terminated with 0.2-2 volumes of either 20% acetic acid or 50-100 mM EDTA buffered to pH 7 (substrate consumption<20%). The buffer employed in enzyme assays was either 30 mM HEPES 7.4 containing 0.15 M NaCl and 5% DMSO, the buffer 50 mM MOPS 7.0 containing 0.15 M NaCl and 5% DMSO, or the buffer 100 mM HEPES pH 7.5 containing 0.1 mg /mL BSA and 5% DMSO. Inhibitors were diluted in 100% DMSO prior to addition into the assay. Detection of peptide phosphorylation was accomplished by scintillation counting following either collection of peptide onto phosphocellulose filters (for reactions stopped with acetic acid), collection of peptide in wells of 96 well plates coated with Streptavidin (Pierce) (reactions were stopped with EDTA), or addition of Avidin coated Scintillant impregnated beads (Scintillation Proximity Assays from Amersham, reactions were stopped with EDTA).

UL97 = target: T1, UL97 (Human cytomegalovirus, UniProt P16788); test: UL97 protein kinase assay, 32P transfer from ATP to histone H2B
T1 construct: GST; made in house; host or cells: baculovirus vector in Sf9 cells
T1 sequence (P16788 whole entry): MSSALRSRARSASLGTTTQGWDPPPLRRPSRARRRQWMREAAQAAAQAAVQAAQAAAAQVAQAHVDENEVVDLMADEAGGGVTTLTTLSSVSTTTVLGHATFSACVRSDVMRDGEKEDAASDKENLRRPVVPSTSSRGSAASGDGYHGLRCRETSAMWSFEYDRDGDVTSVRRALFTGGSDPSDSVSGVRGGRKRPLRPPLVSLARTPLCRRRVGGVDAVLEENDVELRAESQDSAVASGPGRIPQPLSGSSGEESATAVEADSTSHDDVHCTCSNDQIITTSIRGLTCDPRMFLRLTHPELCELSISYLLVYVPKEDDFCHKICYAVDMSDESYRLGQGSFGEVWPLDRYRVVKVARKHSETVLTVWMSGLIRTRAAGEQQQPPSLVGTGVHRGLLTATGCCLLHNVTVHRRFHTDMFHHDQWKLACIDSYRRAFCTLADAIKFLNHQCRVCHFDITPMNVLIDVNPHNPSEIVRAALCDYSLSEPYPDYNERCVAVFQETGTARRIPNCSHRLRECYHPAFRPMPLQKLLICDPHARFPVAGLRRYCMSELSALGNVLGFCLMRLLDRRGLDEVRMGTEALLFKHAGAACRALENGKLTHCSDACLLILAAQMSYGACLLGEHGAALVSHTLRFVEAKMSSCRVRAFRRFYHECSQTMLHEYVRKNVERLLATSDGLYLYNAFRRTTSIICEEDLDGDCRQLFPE
Method: UL97 was produced as a GST fusion protein from a baculovirus vector expressed in sf9 cells as described by He (He, et al., Journal of Virology 1997, 71, 405-11). UL97 was assayed as a protein kinase using ^32P transfer from ATP to histone H2B with detection of radiolabeled histone bound to phosphocellulose. Assay mixes for testing inhibitors of UL97 activity contained 2 mM [γ^32P]-ATP, 15 mM histone H2B, 50 mM sodiumCHES, pH 9.5, 1 M NaCl, 2 mM dithiothreitol and 10 mM MgCl2. Inhibitors were dissolved in diluted DMSO to give a final DMSO concentration in the reaction of 1% DMSO. After incubation at 20° C., the reactions were terminated by addition of 10 volumes of 75 mM phosphoric acid, 30 mM ATP, 1 mM EDTA, then were spotted onto phosphocellulose filters and washed four times with 75 mM phosphoric acid. Radioactivity was determined by liquid scintillation counting.

Lck = Lck (Homo sapiens, UniProt P06239); test: Lck peptide phosphorylation assay (Elisa or isotope based)
Lck, sequence (P06239 whole entry, species assumed, the tested form may be a part): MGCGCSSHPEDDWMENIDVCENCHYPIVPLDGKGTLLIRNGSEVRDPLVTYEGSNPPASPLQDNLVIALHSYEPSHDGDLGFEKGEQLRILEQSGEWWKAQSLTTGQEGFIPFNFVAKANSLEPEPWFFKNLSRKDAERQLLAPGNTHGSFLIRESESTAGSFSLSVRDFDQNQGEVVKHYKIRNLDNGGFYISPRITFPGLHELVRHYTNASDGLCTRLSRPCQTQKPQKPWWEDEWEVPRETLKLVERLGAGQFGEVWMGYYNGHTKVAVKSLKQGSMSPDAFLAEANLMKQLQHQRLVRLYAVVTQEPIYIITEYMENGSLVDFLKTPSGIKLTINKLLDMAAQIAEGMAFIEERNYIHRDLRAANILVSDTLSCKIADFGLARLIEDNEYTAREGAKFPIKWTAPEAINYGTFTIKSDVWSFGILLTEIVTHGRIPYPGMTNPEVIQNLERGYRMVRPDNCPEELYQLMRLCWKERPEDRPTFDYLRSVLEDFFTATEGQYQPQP
Method: The src and Ick proteins were purified to homogeneity from a baculovirus expression system and preactivated before adding to assay mixtures. The maximum activation was achieved by incubating concentrated enzyme (10-30 mM) on ice for 40 min in the presence of 1 mM ATP and 10 mM MgCl2 in 100 mM HEPES, pH 7.5. The activated enzyme was diluted to 2 nM into a 50-mL reaction mixture containing 100 mM HEPES, pH 7.5. 5 mM ATP, 10 mM MgCl2, 2 mM peptide, 0.05 mg/mL BSA, and an inhibitor at varying concentrations and with or without 8 mCi/mL [γ-^33P]ATP dependent upon the method of analysis for the extent of reaction. The controls were reactions in the presence (negative controls) or absence (positive controls) of 50 mM EDTA. Reactions were allowed to proceed for 30 min at room temperature and quenched with addition of EDTA to 50 mM in 220 mL. The extent of reactions was analyzed in one of the two ways: an Elisa-based and a radioactive isotope-based. The quenched samples (200 mL) were transferred to a neutravidin coated plate (Perice) and incubated at room temperature for 40 min to allow biotinylated peptide to bind to neutravidin. The unbound peptide and the rest of the solution was washed away using a plate washer. In the Elisa format, a 200 mL HRP-PY20 anti phosphotyrosine antibody conjugate solution was added. After incubation for about 30 min, the plated was washed to remove unbound antibody-HRP conjugate. An Elisa substrate, K-blue (Neogen), was added and the Elisa reaction quenched with Red-stop (Neogen) after 15 min. The plate was read at A625 in a plate reader. In the isotope-based format, the reactions had been performed in the presence of [γ-^33P]ATP. 200 mL Scintiverce DB was added to each well of the plate with bound biotin-peptide. The plate was sealed and counted in a micro-b-counter (Wallac). IC50 values were obtained by fitting raw data to A625 (cpm)=Vmax*(1−([l]/(IC50+[l])))+b, where b is background.

VEGFR2 = VEGFR2 (Homo sapiens, UniProt P35968); test: VEGFR-2 kinase domain peptide phosphorylation Elisa
VEGFR2, sequence (P35968 834-1162 limits assumed, species assumed): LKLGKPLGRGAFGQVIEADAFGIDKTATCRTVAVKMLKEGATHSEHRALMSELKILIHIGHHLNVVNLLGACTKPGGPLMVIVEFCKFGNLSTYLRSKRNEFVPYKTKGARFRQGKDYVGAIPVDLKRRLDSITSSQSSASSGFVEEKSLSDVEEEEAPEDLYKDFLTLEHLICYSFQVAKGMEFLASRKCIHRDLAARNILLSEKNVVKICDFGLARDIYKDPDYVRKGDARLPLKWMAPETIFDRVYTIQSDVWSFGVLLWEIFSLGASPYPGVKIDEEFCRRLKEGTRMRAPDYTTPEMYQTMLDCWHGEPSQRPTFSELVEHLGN
Method: The peptide substrate used in the VEGFR-2 assay was biotin-aminohexyl-[…]-NH2. The kinase domain of the enzyme was purified to homogeneity from a baculovirus expression system. The enzyme was preactivated on ice for 15 min in the presence of 100 μM ATP and 20 mM MgCl2, and stored at −80° C. until needed for assay. The activated enzyme was diluted to 0.4 nM into a 60 μl reaction containing 100 mM HEPES, pH 7.5, 5 μM ATP, 10 mM MgCl2, 5 μM peptide, 0.1 mM DTT, 0.05 mg/ml BSA, and an inhibitor at varying concentrations. The controls were reactions in the presence (negative controls) or absence (positive controls) of 50 mM EDTA. Reactions were incubated for 30 min at room temperature, and then quenched by the addition of EDTA to 60 mM in 210 μl. The quenched samples (190 μl) were transferred to a neutravidin-coated plate (Pierce) and incubated at room temperature for 40 min to allow biotinylated peptide to bind to the neutravidin. The unbound components of the reaction were removed by washing with a plate washer, then 200 μl HRP-PY20 anti-phosphotyrosine antibody conjugate was added to each well. After incubation for 40 min, the plate was washed to remove any unbound antibody. A HRP substrate, K-blue (Neogen) was added and the reaction was quenched with Red Stop (Neogen) after 20 min. The absorbance of the wells was read at A650 in a plate reader. IC50 values were obtained by fitting raw data to A650=Vmax*(1−[l]/IC50+[l])))+b, where b is background.

CDK1, sequence (P06493 whole entry, species assumed): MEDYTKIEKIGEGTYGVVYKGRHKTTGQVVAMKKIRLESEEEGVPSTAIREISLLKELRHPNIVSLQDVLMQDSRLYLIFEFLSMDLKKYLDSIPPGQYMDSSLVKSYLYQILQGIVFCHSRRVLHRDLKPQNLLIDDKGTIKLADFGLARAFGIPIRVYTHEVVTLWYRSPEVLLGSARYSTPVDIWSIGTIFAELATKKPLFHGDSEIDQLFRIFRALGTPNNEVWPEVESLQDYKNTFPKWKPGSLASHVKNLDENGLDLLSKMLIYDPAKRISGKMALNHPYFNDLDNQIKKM
CDK1, sequence (P14635 whole entry partner, species assumed): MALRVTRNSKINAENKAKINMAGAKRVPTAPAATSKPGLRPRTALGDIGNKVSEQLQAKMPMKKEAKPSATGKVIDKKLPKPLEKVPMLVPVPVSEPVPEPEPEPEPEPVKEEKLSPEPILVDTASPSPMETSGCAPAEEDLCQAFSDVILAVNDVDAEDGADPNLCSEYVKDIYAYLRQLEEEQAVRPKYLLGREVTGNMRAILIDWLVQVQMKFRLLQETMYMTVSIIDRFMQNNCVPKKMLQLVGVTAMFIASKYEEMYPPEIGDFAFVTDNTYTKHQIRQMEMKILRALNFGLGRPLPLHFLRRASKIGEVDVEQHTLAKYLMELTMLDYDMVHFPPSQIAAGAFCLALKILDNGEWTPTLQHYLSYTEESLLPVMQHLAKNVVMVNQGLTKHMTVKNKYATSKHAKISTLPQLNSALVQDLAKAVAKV

SMILES: CNS(=O)(=O)Cc1ccc(NN=C2C(=O)Nc3ccc4ncccc4c32)cc1 [Example 68, N-Methyl-C-{4-[N′-(2-oxo-2,3-dihydro-pyrrolo[3,2-f]quinolin-1-ylidene)-hydrazino]-phenyl}-methanesulfonamide]
- IC50 (CDK1; read-out: CDK1 IC50): 0.051 to 0.1 µM
- IC50 (UL97): 0.011 to 0.05 µM
- IC50 (Lck): > 0.1 µM

SMILES: O=C1Nc2ccc3ncsc3c2C1=CNc1ccc(S(=O)(=O)Nc2ccccn2)cc1 [Example 72, 4-[(7-Oxo-6,7-dihydro-1-thia-3,6-diaza-as-indacen-8-ylidenemethyl)-amino]-N-pyridin-2-yl-benzenesulfonamide]
- IC50 (CDK1): 0.051 to 0.1 µM
- IC50 (UL97): 0.011 to 0.05 µM
- IC50 (VEGFR2): 0.051 to 0.1 µM

SMILES: CNS(=O)(=O)Cc1ccc(NN=C2C(=O)Nc3cc(C)c(O)c(C)c32)cc1 [Example 99]
- IC50 (CDK1; read-out: CDK1 IC50): > 0.1 µM
- IC50 (UL97): 0.001 to 0.01 µM
- IC50 (Lck): > 0.1 µM
- IC50 (VEGFR2): > 0.1 µM

SMILES: CS(=O)(=O)Cc1ccc(NC=C2C(=O)Nc3ccc4ncsc4c32)cc1 [Example 76, 8-(4-Methylsulfonylmethyl-phenylamino-methylene)-6,8-dihydro-1-thia-3,6-diaza-as-indacen-7-one]
- IC50 (CDK1; read-out: CDK1 IC50): > 0.1 µM
- IC50 (Lck): > 0.1 µM
- IC50 (VEGFR2): > 0.1 µM

SMILES: CC(C)(CO)CNS(=O)(=O)c1ccc(NC=C2C(=O)Nc3ccc4ncsc4c32)cc1 [Example 77, N-(3-Hydroxy-2,2-dimethyl-propyl)-4-[(7-oxo-6,7-dihydro-1-thia-3,6-diaza-as-indacen-8-ylidenemethyl)-amino]-benzenesulfonamide]
- IC50 (CDK1; read-out: CDK1 IC50): 0.001 to 0.01 µM
- IC50 (UL97): 0.001 to 0.01 µM
